# Test results from US6440445B1, “Methods and compounds for treatment of abnormal uterine bleeding” (Brigham & Women's Hospital, priority 1996, dated 2002).
# Experiments:
# [1] = system: FGF / specific cell surface receptors; settings: cited from earlier work
# [2] = system: smooth muscle cell; settings: also certain tumor cells; cited from earlier work
# [3] = system: cultured human myometrial smooth muscle cells; assay: DNA synthesis (tritiated thymidine incorporation) in cultured myometrial smooth muscle cells; format: cell-based; settings: for basal and serum-stimulated DNA synthesis (tritiated thymidine incorporation): interferon 10, 100, 1000 U/ml, 24 hr, serum-free 0.1% BSA or 10% fetal bovine serum
# Procedure: (§1) Myometrial and leiomyoma cells from the same patients were used at first passage for proliferation assays. 10,000 cells were plated per well in 96-well plates in medium+10 % serum. Cells were cultured for three days and then placed in serum-free medium for 48 hr to attain quiescence. Interferon-α was tested at the following doses in 10% serum-containing medium; 0, 10, 100 and 1000 U/ml for a period of 24 hr. Tritiated thymidine (luCi/ml) was added to the culture wells for the final 4-6 hr of incubation, the medium removed, cells harvested and counted for thymidine incorporation.
# (§2) Effects on basal DNA synthesis were tested using cells cultured in serum-free medium containing only 0.1% BSA while effects on serum-stimulated cells were assessed using cells cultured in medium with 10% fetal bovine serum.
# (§3) FIGS. 6c and 6d show the effects of interferon-α on bFGF induced increases in DNA synthesis by uterine myometrial and leiomyoma cells, respectively. Cells were treated with either medium+10% serum of various concentrations of bFGF (0.5 ng/ml, 1.0 ng/ml, 5.0 ng/m. and 10 ng/ml) to compare mitogenic effects. Cells cultured in serum were also treated with interferon-α at 10, 100 and 1000 U/ml, while cells cultured in the various concentrations of bFGF were treated with 100 U/ml of interferon α.
# [4] = system: uterine stromal cells; assay: Proliferation of uterine stromal cells (cell counts); format: cell-based; settings: only in the presence of progesterone (10 ng/ml bFGF + 100 nm MPA); 7 days
# Procedure: Stromal cells were used at the first passage and were plated into 100 mm dishes (200,000/dish) in serum-containing medium. The following day, cells were rinsed and transferred to serum-free medium containing insulin, transferrin and selenium. Cells remained in this medium for 48 hr to induce quiescence and then received fresh serum-free medium with one of the following treatments: ITS (medium containing only insulin, transferin, and selenium), ITS+10% fetal bovine serum, MPA (ITS+100 nm medroxy progesterone acetate), E2 (ITS+10 nm estradiol 17-beta), bFGF (ITS+10 ng/ml bFGF), bFGF/E2/MPA (ITS+100 nm MPA+10 nm estradiol+10 ng/ml bFGF), bFGF+2% fetal bovine serum (ITS+10 ng/ml bFGF+2% fetal bovine serum), bFGF+MPA (ITS+10 ng/ml bFGF+100 nm MPA) and bFGF+E2 (TS+10 ng/ml bFGF+10 nm estradiol). Cells were treated for a total of 7 days with cell counts performed on days 2, 4 and 7.
# [5] = system: cultured human leiomyoma smooth muscle cells; assay: DNA synthesis (tritiated thymidine incorporation) in cultured leiomyoma smooth muscle cells; format: cell-based; settings: for basal and serum-stimulated DNA synthesis (tritiated thymidine incorporation): interferon 10, 100, 1000 U/ml, 24 hr, serum-free 0.1% BSA or 10% fetal bovine serum
# Procedure: as §1, §2, §3
# [6] = system: endometrial stromal cells; assay: DNA synthesis in endometrial stromal cells; format: cell-based
# Excerpt: Interferons blocked both bFGF and serum-stimulated DNA synthesis in these cells. […] The results also show the effects of increasing concentrations of interferon-alpha on serum stimulated DNA synthesis.
# The results also show the effects of increasing concentrations of interferon-alpha (10, 100 and 1000 U/ml) on serum (2%) stimulated DNA synthesis.
# [7] = system: vascular smooth muscle cells, T cells, and fibroblasts; settings: wide variety of cells; cited from earlier work
# [8] = system: human fibroblasts; settings: in response to bFGF, TGFB and PDGF; cited from earlier work
# [9] = system: myometrial cells; assay: Pirfenidone: cell proliferation (tritiated thymidine incorporation, cell number), myometrial cells; format: cell-based; settings: p<0.01
# Excerpt: (§4) We have also discovered that pirfenidone is a response-blocking compound. Pirfenidone is an antifibrotic agent which is being investigated for use in patients with pulmonary fibrosis. […] Possible cytotoxic effects were examined using lactate dehydrogenase assays and trypan blue exclusion.
# [10] = system: leiomyoma cells; assay: Cytotoxicity (lactate dehydrogenase assay, trypan blue exclusion), leiomyoma cells; format: cell-based
# Excerpt: as §4
# (§5) Additionally, the effect of pirfenidone on cell proliferation and the percentage of dead cells was examined, and the results from the two experiments are shown in FIG. 12.
# [11] = system: leiomyoma cells; assay: Pirfenidone: cell proliferation (tritiated thymidine incorporation, cell number), leiomyoma cells; format: cell-based; settings: p<0.01
# Excerpt: as §4
# [12] = system: myometrial cells; assay: Collagen type I and III messenger RNA expression by RNA blotting, myometrial cells; format: cell-based
# [13] = system: myometrial cells; assay: Cytotoxicity (lactate dehydrogenase assay, trypan blue exclusion), myometrial cells; format: cell-based
# Excerpt: as §4, §5
# [14] = system: leiomyoma cells; assay: Collagen type I and III messenger RNA expression by RNA blotting, leiomyoma cells; format: cell-based
# [15] = bFGF 0.5-10 ng/ml with 100 U/ml interferon
molecule,measurement,setting,value
heparin,binding of FGF to specific cell surface receptors,[1],inhibit FGF binding
same,smooth muscle cell proliferation,[2],very good inhibitors
"bFGF: basic fibroblast growth factor, angiogenic growth factor",effect of growth factor on DNA synthesis,[3]; bFGF 0.5-10 ng/ml,increase in DNA synthesis
same,proliferation of uterine stromal cells (cell number),[4],stimulates the proliferation
interferon-α,bFGF induced DNA synthesis,[3]; [15],abolished the stimulating effect
same,basal and serum-stimulated DNA synthesis (tritiated thymidine incorporation),[3],dose-dependent inhibition
same,basal and serum-stimulated DNA synthesis (tritiated thymidine incorporation),[3]; listed as interferon alpha,tritiated thymidine incorporation decreases
same,bFGF induced DNA synthesis,[5]; [15],inhibitory effect
same,basal and serum-stimulated DNA synthesis (tritiated thymidine incorporation),[5],dose-dependent inhibition
same,basal and serum-stimulated DNA synthesis (tritiated thymidine incorporation),[5]; listed as interferon alpha,tritiated thymidine incorporation decreases
same,serum-stimulated DNA synthesis,"[6]; 2% serum, interferon 10, 100, 1000 U/ml",blocked
same,bFGF stimulated DNA synthesis,"[6]; bFGF 0.1-5 ng/ml, 100 U/ml interferon",blocked
Cc1ccc(C(=O)Nc2ccc(S(=O)(=O)O)c3cc(S(=O)(=O)O)cc(S(=O)(=O)O)c23)cc1NC(=O)c1cccc(NC(=O)Nc2cccc(C(=O)Nc3cc(C(=O)Nc4ccc(S(=O)(=O)O)c5cc(S(=O)(=O)O)cc(S(=O)(=O)O)c45)ccc3C)c2)c1 [suramin],FGF induced proliferation,[7],very potent inhibitor
same,binding of FGF to specific cell surface receptors,[1],interfere with the ability of FGFs to bind
"Cc1ccc(=O)n(-c2ccccc2)c1 [pirfenidone, 5-methyl-1-phenyl-2-(1H)-pyridone]",fibroblast proliferation in vitro,[8],inhibit fibroblast proliferation
same,cell proliferation,[9],dose dependent inhibition
same,lactate dehydrogenase (LDH) levels,[10],No significant effects
same,cytotoxic effect on the cells,[10]; at the doses tested,no cytotoxic effect
same,percentage of dead cells,"[10]; only at 1.0 mg/ml, p<0.05",significant increase
same,cell proliferation,[11],dose dependent inhibition
same,levels of RNA for collagen type I,[12],reduced
same,levels of RNA for collagen type III,[12],reduced
same,lactate dehydrogenase (LDH) levels,[13],No significant effects
same,cytotoxic effect on the cells,[13]; at the doses tested,no cytotoxic effect
same,percentage of dead cells,"[13]; only at 1.0 mg/ml, p<0.05",significant increase
same,levels of RNA for collagen type I,[14],reduced
same,levels of RNA for collagen type III,[14],reduced
